# Earlier results, collected in patent US20070015279A1, “Methods of Selecting Pancreatic Endocrine Cells Using Protein Synthesis Inhibitors” (AmCyte Inc., priority 2005, published 2007).
# Assays:
# RbbA = conditions: control antibiotic; cited from earlier work
# [1] = test system: 70S ribosome-associated ATPase activity; conditions: cited from earlier work
# 30S ribosomal subunit = conditions: 3 μg/mL; cited from earlier work
# cells = conditions: cited from earlier work
Structure (SMILES),"RbbA released, relative to the amount hygromycin B releases (RbbA)",inhibition of the ATPase activity of ribosomes compared to that of hygromycin B [1],reduction of the rate of 30S formation compared with control cells (30S ribosomal subunit),"IC50, viable cell number (cells)"
"[H]/N=C(/N)N[C@H]1[C@H](O)[C@@H](O)[C@H](O[C@@H]2O[C@@H](C)[C@](O)(C=O)[C@H]2O[C@@H]2O[C@@H](CO)[C@H](O)[C@@H](O)[C@@H]2NC)[C@@H](N/C(N)=N\[H])[C@@H]1O [Streptomycin, streptomycin]",about 25%,about 20%,,
NC[C@@H]1O[C@H](O[C@H]2[C@@H](O)[C@H](O[C@@H]3[C@@H](O)[C@H](N)C[C@H](N)[C@H]3O[C@H]3O[C@H](CO)[C@@H](O)[C@H](O)[C@H]3N)O[C@@H]2CO)[C@H](N)[C@@H](O)[C@@H]1O [paromomycin],,,about 80%,2 µg/mL
